Counter-ions that a name gives are not always drawn.

The term half-life denotes the time needed for the level to fall by half in the phase considered. A high value points to slow decline.

The nature of one data set: in vivo. Particulars: Brown Norway, iv. The method, then:
This intravenous dosing solution is administered to a Brown Norway rat. After a given interval from the administration, for example, 24, 72 and 168 hours after the administration, blood is collected. Then, the rat is euthanized while the eyeballs are excised. A posterior eye tissue such as the choroid and/or the sclera, the retina, or the optic nerve is harvested therefrom. A given amount of an aqueous solution containing an organic solvent (e.g., a 50 vol % methanol solution) is added to the harvested posterior eye tissue, which is then homogenized, for example, to prepare an assay sample. The drug concentration in this assay sample can be measured using a liquid chromatograph-tandem mass spectrometer (LC/MS/MS) to measure the compound concentration in the posterior eye tissue in the case of systemic administration. The elimination half-life of the compound in the posterior eye tissue can be further calculated from time-dependent change in compound concentration in the posterior eye tissue.
Each compound was dissolved in DMA. […] Each intravenous dosing solution was administered (0.5 mL/kg) to the tail vein of each Brown Norway rat. Twenty-four, 72 and 168 hours after the administration, blood was collected. Then, the animal was euthanized, and the eyeballs were excised. The eyeballs were washed, and a choroid/sclera sample was then harvested.
A given amount of a 50 vol % methanol solution was added to the harvested choroid/sclera sample, which was then homogenized. Acetonitrile was further added thereto, and the mixture was stirred. The sample was centrifuged, and the supernatant was harvested. A 0.1 vol % formic acid solution was added thereto to prepare an assay sample. The drug concentration in the assay sample was measured using a liquid chromatograph-tandem mass spectrometer (LC/MS/MS).

The nature of data set [1]: Test Example 6: pharmacokinetics, single ocular instillation to cynomolgus monkey, concentration in choroid. It counts as in vivo. To be noted: cynomolgus monkeys. The method, then:
The nanoparticle composition of the present invention prepared according to Example 1 and the microparticle composition prepared according to Comparative Example 1 were evaluated for their pharmacokinetics when administered at a single dose by ocular instillation to male cynomolgus monkeys. The nanoparticle composition of the present invention prepared according to Example 1 was administered by ocular instillation (50 μL/eye) to the right eye of each animal, while the microparticle composition prepared according to Comparative Example 1 was administered by ocular instillation (50 μL/eye) to the left eye thereof. Four hours or 48 hours (n=2 for each point in time) after the ocular instillation, blood was collected. […] The eyeballs were washed, and a choroid tissue was then harvested.
(§1) The sample was centrifuged, and the supernatant was harvested. A 10 mmol/L ammonium acetate solution was added thereto to prepare an assay sample.

Data set [2] is described as follows: Test Example 3: pharmacokinetics, single ocular instillation to rat, concentration in choroid/sclera. To be noted: rats, 4 hours. In kind it is in vivo, Brown Norway rat. The method, then:
The nanoparticle compositions of the present invention prepared in accordance with Examples 1 and 26 and the nanoparticle compositions of the present invention obtained in Examples 50, 52, 53, 54, 57 and 96 were evaluated for their pharmacokinetics when administered at a single dose by ocular instillation to rats. Each nanoparticle composition was administered at a single dose by ocular instillation to the right eyes of male Brown Norway rats (5 μL/eye, n=2 for each group). Four hours after the ocular instillation, each rat was euthanized, and the right eyeball was excised. The eyeball was washed, and a choroid/sclera sample was then harvested.
as §1

The nature of data set [3]: Test Example 1: pharmacokinetics, single ocular instillation to rat, concentration in choroid/sclera. It counts as in vivo, Brown Norway rat. To be noted: nanoparticle composition, mean particle size 1000 nm or smaller. The method, then:
The nanoparticle compositions of the present invention obtained in Examples 19 and 24 and the microparticle compositions obtained in Comparative Examples 3 and 4 were evaluated for their pharmacokinetics when administered at a single dose by ocular instillation (4 to 12 μL/eye, n=2 for each group) to rats. Each nanoparticle composition was administered at a single dose by ocular instillation to the right eyes of male Brown Norway rats. Four to 7 hours after the ocular instillation, each rat was euthanized, and the right eyeball was excised. The eyeball was washed, and an eyeball tissue sample (choroid/sclera) was then harvested.
as §1

Data set [4] is described as follows: Test Example 5: pharmacokinetics, single ocular instillation to rabbit, compound III in choroid/retina. It counts as in vivo, Kbl:Dutch rabbit. To be noted: rabbits, all particle sizes evaluated. The method, then: The nanoparticle compositions obtained in Reference Examples 11 to 13 and the microparticle composition prepared according to Comparative Example 1 were evaluated for their pharmacokinetics when administered at a single dose by ocular instillation (20 μL/eye) to Kbl:Dutch rabbits. Each of the nanoparticle compositions obtained in Reference Examples 11 to 13 and the microparticle composition prepared according to Comparative Example 1 was administered at a single dose by ocular instillation to the left eyes of the animals (n=3 for each condition). 1.5 hours after the ocular instillation, each animal was euthanized, and the eyeballs were excised. The eyeballs were washed, and a choroid/retina sample was then harvested.
as §1

Data set [5] in a line: Test Example 10: pharmacokinetics of compounds IV to VIII, single ocular instillation to rat, concentration in choroid/sclera. Particulars: rats, 1.5 hours. In kind it is in vivo, Brown-Norway rat. The method, then:
1.5 hours after the ocular instillation, blood was collected. Then, the animal was euthanized, and both the eyeballs were excised.
The sample was centrifuged, and the supernatant was harvested.

Where [6] appears, read: rat, 0.2 mg/kg, Half-life in choroid and sclera.

For `COc1cc2ncnc(Nc3cccc(Cl)c3)c2cc1OC` [AG-1478, N-(3-chlorophenyl)-N-(6,7-dimethoxyquinazolin-4-yl)amine], in the data set “in vivo” (rat, 0.05 mg/kg, Half-life in choroid and sclera), the half-life is 42.8 h.

In turn, `COc1cc2ncnc(Nc3cccc(Cl)c3F)c2cc1OC(=O)N1CCN(C)C[C@H]1C` [AZD-3759, 4-[(3-chloro-2-fluorophenyl)amino]-7-methoxyquinazolin-6-yl (2R)-2,4-dimethylpiperazine-1-carboxylate] gave a half-life in “in vivo” (setting [6]) of 120 h. With `COc1cc2nccc(Oc3ccc(NC(=O)Nc4cc(C)on4)c(Cl)c3)c2cc1OC` [Compound II, N-[2-chloro-4-(6,7-dimethoxyquinolin-4-yloxy)phenyl]-N′-(5-methylisoxazol-3-yl)urea hydrochloride hydrate], the “concentration in the choroid, compound II vs regorafenib” value in data set [1] is “much higher than that of regorafenib”. Also, the entries for the “transfer to the choroid and/or the sclera” value in data set [2] and in data set [3] were “high transfer to the choroid and/or the sclera” and “drastically enhanced transfer to the choroid and/or the sclera”, respectively. In the case of `CNC(=O)c1cc(Oc2ccc(NC(=O)Nc3ccc(Cl)c(C(F)(F)F)c3)c(F)c2)ccn1` [Compound III, 4-{4-[3-(4-chloro-3-trifluoromethylphenyl)-ureido]-3-fluorophenoxy}pyridine-2-carboxylic acid methylamide], the “transfer to the choroid” value in data set [4] is reported as “very low”.

Consider `COc1cc2c(Oc3ccc4[nH]c(C)cc4c3F)ccnc2cc1OCC1(N)CC1` [Compound IV, 1-[[4-[(4-fluoro-2-methyl-1H-indol-5-yl)oxy]-6-methoxyquinolin-7-yl]oxymethyl]cyclopropan-1-amine], for which the half-life in “in vivo” (setting [6]) was 141 h. In addition, the “transfer to the choroid and/or the sclera, nanoparticle vs microparticle composition” value (shortened to “transfer … vs microparticle composition”) in data set [5] is recorded as “moderately improved transfer”. Regarding `COc1cc2nccc(Oc3ccc(NC(=O)NC4CC4)c(Cl)c3)c2cc1C(N)=O` [Compound V, 4-[3-chloro-4-(cyclopropylcarbamoylamino)phenoxy]-7-methoxyquinoline-6-carboxamide], the half-life in “in vivo” (setting [6]) is 42.3 h. Compound `COC(=O)c1ccc2c(c1)NC(=O)/C2=C(\Nc1ccc(N(C)C(=O)CN2CCN(C)CC2)cc1)c1ccccc1` [Compound VI, methyl (3Z)-3-[({4-[N-methyl-2-(4-methylpiperazin-1-yl)acetamido]phenyl}amino)(phenyl)methylidene]-2-oxo-2.3-dihydro-1H-indole-6-carboxylate] gave a half-life in “in vivo” (setting [6]) of 194 h. Further, the “transfer … vs microparticle composition” value in data set [5] is reported as “did not differ in transfer to the choroid and/or the sclera”. With `COc1cc2ncnc(Nc3ccc(F)c(Cl)c3)c2cc1NC(=O)/C=C/CN1CCCCC1` [Compound VII, (E)-N-[4-(3-chloro-4-fluoroanilino)-7-methoxyquinazolin-6-yl]-4-piperidin-1-ylbut-2-enamide], the “Half-life in choroid and sclera” value in “in vivo” (rat, 0.2 mg/kg) is 486 h. The compound further had a half-life in the data set “in vivo” (setting [6]) of 918 h. Moreover, the “transfer … vs microparticle composition” value in data set [5] is recorded as “drastically improved transfer”. For the compound `C=CC(=O)Nc1ccc2ncnc(Nc3ccc(OCc4cccc(F)c4)c(Cl)c3)c2c1` [Compound VIII, N-[4-[[3-chloro-4-[(3-fluorobenzyl)oxy]phenyl]amino]quinazolin-6-yl]acrylamide], the “Half-life in choroid and sclera” value in the data set “in vivo” (rat, 0.2 mg/kg) was 40.1 h. Further, the half-life in the data set “in vivo” (setting [6]) is 52.9 h. Also, in data set [5], the “transfer … vs microparticle composition” value was “drastically improved transfer”.

In the case of `C=CC(=O)Nc1cccc(Oc2nc(Nc3ccc(N4CCN(C)CC4)c(F)c3)nc3[nH]ccc23)c1` [avitinib], in “in vivo” (in vivo, 0.2 mg/kg, Half-life in choroid and sclera, EGFR inhibitors, intravenous single dose 0.2 mg/kg), the half-life is 85.5 h.

In the case of `CNC(=O)c1ccccc1Sc1ccc2c(/C=C/c3ccccn3)n[nH]c2c1` [axitinib], the half-life in “in vivo” (setting [6]) was 57.4 h. In the data set “in vivo” (rat, 0.1 mg/kg), `COc1cc(N2CCC(N3CCN(C)CC3)CC2)ccc1Nc1ncc(Cl)c(Nc2ccccc2P(C)(C)=O)n1` [brigatinib] gave a half-life of 137 h. The compound `COc1cc2nccc(Oc3ccc(NC(=O)C4(C(=O)Nc5ccc(F)cc5)CC4)cc3)c2cc1OC` [cabozantinib] gave a half-life in “in vivo” (in vivo, 0.2 mg/kg, Half-life in choroid and sclera, VEGF receptor inhibitors, intravenous single dose 0.2 mg/kg) of 65.8 h. In “in vivo” (setting [6]), `CNC(=O)c1c(C)oc2cc(Oc3ncnc4cc(OC)c(OC)cc34)ccc12` [fruquintinib] showed a half-life of 32.5 h. `COCCNCc1ccc(-c2cc3nccc(Oc4ccc(NC(=S)NC(=O)Cc5ccc(F)cc5)cc4F)c3s2)nc1` [glesatinib] showed a half-life in “in vivo” (setting [6]) of 132 h. Same read-out and setting: in the case of `C#Cc1cccc(Nc2ncnc3cc4c(cc23)OCCOCCOCCO4)c1` [icotinib] it was 64.8 h. Still for that read-out and setting: in the case of `CS(=O)(=O)CCNCc1ccc(-c2ccc3ncnc(Nc4ccc(OCc5cccc(F)c5)c(Cl)c4)c3c2)o1` [lapatinib] it was 246 h; in that of `Cc1cc(C(=O)Nc2nc3cccc(Cl)c3n2[C@@H]2CCCCN(C(=O)/C=C/CN(C)C)C2)ccn1` [nazartinib], 65.4 h; in that of `C=CC(=O)N1CCC(Oc2cc3c(Nc4ccc(Cl)c(Cl)c4F)ncnc3cc2OC)CC1` [poziotinib], 31.9 h. The same measure, in the same setting: the same measure for `COc1cc2c(Nc3ccc(Cl)c(Cl)c3F)ncnc2cc1OC[C@@H]1C[C@@H]2CN(C)C[C@@H]2C1` [tesevatinib]: 305 h; for `C[C@@H]1COC(Nc2ccc3ncnc(Nc4ccc(OCc5nccs5)c(Cl)c4)c3c2)=N1` [varlitinib]: 46.1 h.

Source of the values: US10894043B2, “Pharmaceutical composition” (Kyowa Kirin Co., Ltd., priority 2016, dated 2021).
